Source: US20110166223A1, “METHODS OF INHIBITING FGFR3 SIGNALING” (CEDARS-SINAI MEDICAL CENTER, priority 2008, published 2011)

Target: T1, recombinant tyrosine kinase (TK) domain of FGFR3 (Homo sapiens, UniProt P22607)
T1 construct: recombinant tyrosine kinase (TK) domain of FGFR3 (Glu-322-Thr-806; Cell Signaling); purchased Cell Signaling
Assay: Cell-free FGFR3 kinase assay with STAT1 as substrate
Type: biochemical
Conditions: for effect on FGFR3 kinase activity (in words): added directly to the kinase reaction, FIG. 4
Protocol: FIG. 4, in accordance with an embodiment herein, depicts 4,4′,4″,4′″-[carbonyl-bis[imino-5,1,3-benzenetriyl bis-{carbonylimino}]]tetrakis-{benzene-1,3-disulfonic acid} inhibits FGFR3 activity in a kinase assay. (a, b) Cell-free kinase assays were carried out as described herein, with recombinant tyrosine kinase (TK) domain of FGFR3 as a kinase, recombinant STAT1 as a substrate, and NF449 added directly to the kinase reaction. FGFR3-mediated phosphorylation of STAT1 was detected by WB with P-STAT1 (Y^701) antibody. The membrane was reprobed with FGFR3 and STAT1 antibodies to control for kinase and substrate quantity. The sample with ATP omitted serves as a negative control for the kinase reaction. Note the FGFR3-mediated phosphorylation of STAT1 is inhibited by 4,4′,4″,4′″-[carbonyl-bis[imino-5,1,3-benzenetriyl bis-{carbonylimino}]]tetrakis-{benzene-1,3-disulfonic acid}. The P-STAT1 and STAT1 signal was quantified by densitometry and expressed as a ratio between P-STAT1 and STAT1 signal for each given sample (b, lower graph). (c) The FGFR3 kinase assay was carried-out as described in (a) with 4,4′,4″,4′″-[carbonyl-bis[imino-5,1,3-benzenetriyl bis-{carbonylimino}]]tetrakis-{benzene-1,3-disulfonic acid}, 8,8′-[carbonylbis[imino-3,1-phenylenecarbonylimino{4-methyl-3,1-phenylene}carbonylimino]]bis-1,3,5-naphthalenetrisulfonic acid or 8,8′-[carbonylbis[imino-3,1-phenylene]]bis-{1,3,5-naphthalenetrisulfonic acid} added to the kinase reaction. Note the differential effects of 8,8′-[carbonylbis[imino-3,1-phenylenecarbonylimino{4-methyl-3,1-phenylene}carbonylimino]]bis-1,3,5-naphthalenetrisulfonic acid and 8,8′-[carbonylbis[imino-3,1-phenylene]]Bis-{1,3,5-naphthalenetrisulfonic acid} on the FGFR3-mediated phosphorylation of STAT1, which corresponds to their activity in the RCS growth-arrest experiment (lower graph). Data are an average from four wells with the indicated standard deviation. Statistically significant rescue of the growth arrest is indicated (Student's I-test; *-p<0.01).
OPM2 and KMS11 cells were lysed in ice-cold immunoprecipitation buffer (50 mM Tris-HCl pH 7.4, 150 mM NaCl, 0.5% NP-40, 1 mM EDTA, 25 mM NaF) supplemented with proteinase inhibitors and 10 mM sodium orthovanadate. Protein samples were resolved by SDS-PAGE and transferred onto a PVDF membrane. The following antibodies were used: Erk1/2, P-Erk1/2^T202/Y204, STAT1, P-STAT1^Y701 (Cell Signaling, Beverly, Mass.) and FGFR3 (Santa Cruz Biotechnology, Santa Cruz, Calif.). Western blotting signal was quantified by determining the integrated optical density (I.O.D.) of a given band using Scion Image software (Scion Corporation, Frederick, Mass.). Immunoprecipitations and FGFR3 kinase assays were performed as described. Briefly, the pRK7 vector encoding C-terminally FLAG-tagged K650E-FGFR3 was transfected into CHO cells using FuGENE6 reagent according to the manufacturer's protocol (Roche Applied Science, Indianapolis, Ind.). 48 hours after transfection, cells were treated with 20 ng/ml of FGF2 for 15 minutes and K650E-FGFR3 was immunoprecipitated from 800 μg of cell lysate protein using 4 μg of anti-FLAG antibody (Sigma-Aldrich, St. Louis, Mo.). Cells transfected with a plasmid encoding green fluorescent protein (pCCEY) serve as a negative control for the immunoprecipitation. Immunocomplexes were washed two times with kinase buffer (60 mM HEPES-NaOH pH 7.5, 3 mM MgCl2, 3 mM MnCl2, 3 μM Na3VO4, 1.2 mM dithiothreitol), and the kinase reactions were performed for 30 minutes at 30° C. in the presence of 2.5 μg of polyethylene glycol, 10 μM ATP, 300 ng of recombinant STAT1 (Active Motif, Carlsbad, Calif.) as a substrate, and NF449 added directly to the kinase reaction. Kinase assays utilizing recombinant tyrosine kinase (TK) domain of FGFR3 (Glu-322-Thr-806; Cell Signaling) were carried-out similarly, with 300 ng of kinase used in 50 μl reaction, and suramin, NF449 and NF023 added directly to the kinase reaction. […]

T1 sequence (P22607 322-806): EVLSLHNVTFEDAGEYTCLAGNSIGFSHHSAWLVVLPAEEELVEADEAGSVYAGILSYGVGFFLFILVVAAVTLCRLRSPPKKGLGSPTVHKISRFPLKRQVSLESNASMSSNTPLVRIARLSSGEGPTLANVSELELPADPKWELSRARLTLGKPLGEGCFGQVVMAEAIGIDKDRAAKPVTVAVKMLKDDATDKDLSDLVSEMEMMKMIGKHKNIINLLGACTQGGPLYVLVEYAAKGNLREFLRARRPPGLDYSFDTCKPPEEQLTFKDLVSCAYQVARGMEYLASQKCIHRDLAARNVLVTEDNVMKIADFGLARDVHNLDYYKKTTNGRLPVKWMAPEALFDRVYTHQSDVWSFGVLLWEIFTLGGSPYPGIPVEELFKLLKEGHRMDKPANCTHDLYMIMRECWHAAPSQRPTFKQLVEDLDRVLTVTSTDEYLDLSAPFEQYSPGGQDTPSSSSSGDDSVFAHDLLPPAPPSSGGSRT

O=C(Nc1cc(C(=O)Nc2ccc(S(=O)(=O)O)cc2S(=O)(=O)O)cc(C(=O)Nc2ccc(S(=O)(=O)O)cc2S(=O)(=O)O)c1)Nc1cc(C(=O)Nc2ccc(S(=O)(=O)O)cc2S(=O)(=O)O)cc(C(=O)Nc2ccc(S(=O)(=O)O)cc2S(=O)(=O)O)c1 [NF449, 4,4′,4″,4′″-[carbonyl-bis[imino-5,1,3-benzenetriylbis-{carbonylimino}]]tetrakis-{benzene-1,3-disulfonic acid}]
inhibition of FGFR3 kinase activity (0.1-30 μM range, FIG. 4b): some inhibition of FGFR3 kinase activity at all concentrations
FGFR3-mediated tyrosine phosphorylation of STAT1 (5-30 μM NF449 concentration range, FIG. 4a): inhibited at all concentrations
concentration necessary to achieve more than 50% inhibition of FGFR3 kinase activity (FIG. 4b, densitometry P-STAT1/STAT1): ≥ 2 µM
effect on FGFR3 kinase activity (in words): inhibited the FGFR3-mediated tyrosine phosphorylation of STAT1
effect on FGFR3 kinase activity (in words) (listed as 4,4′,4″,4′″-[carbonyl-bis[imino-5,1,3-benzenetriyl bis-{carbonylimino}]]tetrakis): inhibited
concentration range inhibiting FGFR3 kinase activity (comparison with SU5402): 2 to 20 µM
